# Test results published in US20210128561A1, “MRGX Receptor Antagonists” (Rheinische-Friedrich-Wilhelms-Universität Bonn, priority 2019, published 2021).
# Ends that are not written are not given here.
# Tests used:
# human MrgX4 L83S = target: T1, human MrgX4 L83S (Homo sapiens, UniProt Q96LA9, L83S); assay: β-arrestin assay (CHO β-arrestin human MrgX4 L83S); assay type: cell-based; conditions: for % inhibition ± SEM: test concentration not given
# T1 construct: expressed in transfected cells; host or cells: CHO beta-arrestin cells
# T1 sequence (Q96LA9 whole entry L83S): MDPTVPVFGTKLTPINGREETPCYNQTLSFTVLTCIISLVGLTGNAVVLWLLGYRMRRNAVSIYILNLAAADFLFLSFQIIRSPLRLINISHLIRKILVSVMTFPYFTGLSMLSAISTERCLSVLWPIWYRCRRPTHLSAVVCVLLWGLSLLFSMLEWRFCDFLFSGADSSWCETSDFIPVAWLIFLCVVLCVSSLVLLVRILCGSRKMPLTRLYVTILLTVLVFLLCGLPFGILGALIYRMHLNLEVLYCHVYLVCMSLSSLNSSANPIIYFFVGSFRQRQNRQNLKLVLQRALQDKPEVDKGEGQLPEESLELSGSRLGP
# human wildtype MrgX2 = target: T2, human wildtype MrgX2 (Homo sapiens, UniProt Q96LB1); assay: calcium assay (LN229 cells recombinantly expressing human wildtype MrgX2); assay type: cell-based; conditions: for % inhibition ± SEM: test concentration not given
# T2 construct: expressed in transfected cells; host or cells: LN229 cells
# T2 sequence (Q96LB1 1-330): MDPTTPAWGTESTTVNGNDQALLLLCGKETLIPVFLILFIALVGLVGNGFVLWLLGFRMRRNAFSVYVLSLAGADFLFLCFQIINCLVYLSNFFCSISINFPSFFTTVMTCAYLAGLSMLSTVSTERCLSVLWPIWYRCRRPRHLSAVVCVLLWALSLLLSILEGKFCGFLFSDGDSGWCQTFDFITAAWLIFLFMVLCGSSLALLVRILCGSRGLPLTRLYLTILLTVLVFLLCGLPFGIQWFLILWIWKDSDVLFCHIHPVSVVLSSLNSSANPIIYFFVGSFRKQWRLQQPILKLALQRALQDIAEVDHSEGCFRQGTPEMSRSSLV
# human LAD2 mast cells = conditions: cited from earlier work
Molecule,IC50 (human MrgX4 L83S) [µM],% inhibition ± SEM (human MrgX4 L83S) [%],IC50 (human wildtype MrgX2) [µM],% inhibition ± SEM (human wildtype MrgX2) [%],"β-hexosaminidase release of SP alone (human LAD2 mast cells; 1 μM substance P, LAD2) [%]","β-hexosaminidase release of substance P alone (human LAD2 mast cells; saikosaponin A study, stimulus stated as 30 μg/mL compound 48/80, LAD2) [%]"
COC(=O)Cc1cc(=O)n2c(nc3ccccc32)[nH]1 [A-28],> 100,4,,,,
CC(C)(C)c1cc(=O)n2c(nc3ccccc32)[nH]1 [A-18],> 100,48,,,,
CCc1c(C)n(C)c2nc3ccccc3n2c1=O [A-30],> 10,2,> 100,31,,
O=C(O)Cc1cc(=O)n2c(nc3ccccc32)[nH]1 [A-27],> 100,−18,,,,
Cc1[nH]c2nc3ccccc3n2c(=O)c1CCC(C)C [A-12],> 10,−25,,,,
CCCn1c(C)cc(=O)n2c3ccccc3nc12 [A-4],> 100,35,,,,
CCCCc1c(O)[nH]c2nc3ccccc3n2c1=O [A-25],> 100,22,,,,
O=c1c2c([nH]c3nc4ccccc4n13)CCCC2 [B-55],5.66 ± 1.15,,> 100,20,,
N#CCCc1c(-c2ccccc2)[nH]c2nc3ccccc3n2c1=O [A-22],> 100,2,,,,
Cc1cc(=O)n2c3ccccc3nc2n1Cc1ccc(Cl)cc1 [A-6],> 10,14,,,,
"substance P (RPKPQQFFGLM-NH2; ends and bridges not checked; UniProt P20366 58-68, looked up)",,,,,60,100
CCCc1c(C)[nH]c2nc3ccccc3n2c1=O [A-10],2.42 ± 0.22,,0.683 ± 0.174,,,
O=c1ccnc2[nH]c3ccccc3n12 [A-2],> 100,18,,,,
Cc1cc(=O)n2cc[nH]c2n1 [A-1],> 100,4,,,,
CCCc1cc(=O)n2c(nc3ccccc32)[nH]1 [A-19],14.7 ± 1.3,,> 100,27,,
CCOC(=O)Cc1cc(=O)n2c(nc3ccccc32)[nH]1 [A-29],> 100,−33,,,,

Molecule,IC50 (human MrgX4 L83S) [µM],% inhibition ± SEM (human MrgX4 L83S) [%],IC50 (human wildtype MrgX2) [µM],% inhibition ± SEM (human wildtype MrgX2) [%],"β-hexosaminidase release of SP alone (human LAD2 mast cells; 1 μM substance P, LAD2) [%]","β-hexosaminidase release of substance P alone (human LAD2 mast cells; saikosaponin A study, stimulus stated as 30 μg/mL compound 48/80, LAD2) [%]"
Cc1[nH]c2nc3ccccc3n2c(=O)c1CCC#N [A-16],> 100,26,,,,
CCCCc1c(C)[nH]c2nc3ccccc3n2c1=O [A-11],> 100,37,,,,
CCOC(=O)c1cnc2[nH]c3ccccc3n2c1=O [A-3],> 100,25,,,,
CCc1c(O)[nH]c2nc3ccccc3n2c1=O [A-24],> 100,16,> 100,2,,
CCOC(=O)CCc1c(C)[nH]c2nc3ccccc3n2c1=O [A-15],1.4 ± 0.88,,> 100,3,,
Cc1[nH]c2nc3ccccc3n2c(=O)c1CCc1ccccc1 [A-14],> 10,19,,,,
Cc1cc(=O)n2c3ccccc3nc2n1Cc1ccccc1 [A-5],> 10,−5,,,,
Cc1[nH]c2nc3ccccc3n2c(=O)c1C [A-8],11.6 ± 3.7,,2.89 ± 0.24,,,
Cc1cc(=O)n2c3ccccc3nc2n1CC#N [A-7],> 100,43,,,,
CCc1c(C)[nH]c2nc3ccccc3n2c1=O [A-9],3.23 ± 0.36,,0.662 ± 0.102,,,
O=c1cc(-c2ccccc2)[nH]c2nc3ccccc3n12 [A-20],> 100,−2,,,,
COCc1cc(=O)n2c(nc3ccccc32)[nH]1 [A-26],> 100,−13,,,,
CC(C)c1cc(=O)n2c(nc3ccccc32)[nH]1 [A-17],3.22 ± 0.82,,> 100,70,,
Cc1[nH]c2nc3ccccc3n2c(=O)c1Cc1ccccc1 [A-13],> 100,24,,,,
CCCc1c(-c2ccccc2)[nH]c2nc3ccccc3n2c1=O [A-21],0.583 ± 0.049,,0.0121 ± 0.0015,,,

# More lines, main results first:
IC50 (human MrgX4 L83S) [µM],% inhibition ± SEM (human MrgX4 L83S) [%],IC50 (human wildtype MrgX2) [µM],% inhibition ± SEM (human wildtype MrgX2) [%],Molecule,"β-hexosaminidase release of SP alone (human LAD2 mast cells; 1 μM substance P, LAD2) [%]","β-hexosaminidase release of substance P alone (human LAD2 mast cells; saikosaponin A study, stimulus stated as 30 μg/mL compound 48/80, LAD2) [%]"
0.477 ± 0.087,,0.00827 ± 0.00082,,CCc1c(C(C)C)[nH]c2nc3cc(Cl)c(Cl)cc3n2c1=O [B-41],,
> 10,2,,,CSc1cc(C(C)C)nc2nc3ccccc3n12 [B-61],,
0.214 ± 0.032,,> 100,89,CCCc1[nH]c2nc3ccccc3n2c(=O)c1CCC [B-45],,
1.4 ± 0.36,,0.199 ± 0.025,,CCCc1[nH]c2nc3cc(C)c(C)cc3n2c(=O)c1CC [B-44],,
0.54 ± 0.076,,> 10,105,CCc1c(-c2ccccc2)[nH]c2nc3ccccc3n2c1=O [C-79],,
0.29 ± 0.098,,0.00248 ± 0.00075,,CCc1c(C(C)C)[nH]c2nc3ccccc3n2c1=O [B-37],,
0.223 ± 0.019,,,,CCc1c(C(C)C)[nH]c2nc3ccc(Cl)cc3n2c1=O [C-85],,
> 100,48,,,COC(=O)c1cc(=O)[nH]c2nc3ccccc3n12 [B-65],,
> 100,−4,,,Cc1cc(=S)n2c(nc3ccccc32)[nH]1 [B-57],,
0.278 ± 0.042,,,,CCCc1[nH]c2nc3ccccc3n2c(=O)c1CC [B-43],,
> 10,40,,,CCc1c(C(C)C)nc2n(Cc3ccccc3)c3cc(C)ccc3n2c1=O [C-73],,
0.0225 ± 0.0024,,0.00042 ± 5.4e-05,,CCc1c(C(C)C)[nH]c2nc3cc(F)c(F)cc3n2c1=O [B-40],,
> 100,−44,,,"O=c1ccsc2nc3ccccc3n12 [B-58, 4H-benzo[4,5]imidazo[2,1-b][1,3]thiazin-4-one]",,
> 100,18,,,Cc1cc(=O)n2c(nc3cc4ccccc4cc32)[nH]1 [B-62],,
> 100,14,,,"2-Methyl-4H-benzo[4,5]thiazolo[3,2-a]pyrimidin-4-one [B-60]",,
0.25 ± 0.061,,,,CCc1c(-c2ccc(OC)cc2)[nH]c2nc3ccccc3n2c1=O [B-46],,
> 100,40,,,CCc1c(C)nc2[nH]ccn2c1=O [B-31],,
0.0877 ± 0.0368,,0.0184 ± 0.0054,,CCc1c(C(C)C)[nH]c2nc3cc(C)c(C)cc3n2c1=O [B-39],,
0.349 ± 0.065,,,,CCc1c(C(C)(C)C)[nH]c2nc3ccccc3n2c1=O [C-76],,
> 100,8,,,CNCCc1c(C)[nH]c2nc3ccccc3n2c1=O [C-68],,
> 100,6,,,CC(C)c1cc(=O)n2c(nc3cc4ccccc4cc32)[nH]1 [B-63],,
> 100,24,,,Cc1cc(=O)n2c(n1)[nH]c1ccccc12 [B-33],,

IC50 (human MrgX4 L83S) [µM],% inhibition ± SEM (human MrgX4 L83S) [%],IC50 (human wildtype MrgX2) [µM],% inhibition ± SEM (human wildtype MrgX2) [%],Molecule,"β-hexosaminidase release of SP alone (human LAD2 mast cells; 1 μM substance P, LAD2) [%]","β-hexosaminidase release of substance P alone (human LAD2 mast cells; saikosaponin A study, stimulus stated as 30 μg/mL compound 48/80, LAD2) [%]"
0.468 ± 0.052,,0.0513 ± 0.0191,,CCc1c(CC(C)C)[nH]c2nc3ccccc3n2c1=O [C-78],,
8.04 ± 1.63,,,,Cc1[nH]c2nc3ccccc3n2c(=O)c1CCCl [C-67],,
0.147 ± 0.015,,0.000352 ± 7e-05,,CCc1c(C(C)C)[nH]c2nc3ccc(C)cc3n2c1=O [C-70],,
> 100,0,,,"O=c1ccn2c(n1)[nH]c1ccccc12 [B-64, Benzo[4,5]imidazo[1,2-a]pyrimidin-2(10H)-one]",,
0.091 ± 0.0292,,0.000446 ± 0.000142,,CCc1c(C(C)C)[nH]c2nc3cc(C)ccc3n2c1=O [C-71],,
> 10,39,,,CCc1c(C(C)C)nc2n(Cc3ccccc3)c3ccc(C)cc3n2c1=O [C-72],,
> 100,15,0.054 ± 0.0192,,CCc1c(C(C)C)[nH]c2nc3c(C)cccc3n2c1=O [B-38],,
> 100,45,,,O=C(O)c1cnc2[nH]c3ccccc3n2c1=O [B-32],,
> 100,48,> 100,10,CC(C)c1cc(=O)n2c3ccccc3n(C)c2n1 [B-36],,
0.89 ± 0.184,,0.0368 ± 0.0084,,CCc1c(C(C)C)[nH]c2nc3cc(Br)c(Br)cc3n2c1=O [C-75],,
> 10,34,,,CCc1c(-c2cccs2)[nH]c2nc3ccccc3n2c1=O [C-80],,
> 100,13,,,"Cc1cc(=O)n2c(n1)oc1ccccc12 [B-59, 2-Methyl-4H-benzo[4,5]oxazolo[3,2-a]pyrimidin-4-one]",,
5.54 ± 1.74,,> 10,86,CCCc1c(CC)c(=O)n2c([nH]c3ccccc32)c1C#N [C-88],,
> 100,4,,,NC1=NC=NC2Nc3ccccc3N12 (stereo not drawn) [B-66],,
0.148 ± 0.042,,0.00394 ± 0.00167,,CC(C)c1cc(=S)n2c(nc3ccccc32)[nH]1 [B-56],,
0.512 ± 0.107,,> 100,68,CCCc1c(C(C)C)[nH]c2nc3ccccc3n2c1=O [B-42],,
> 100,22,> 100,−2,Cc1[nH]c2nc3ccccc3n2c(=O)c1CCO [B-34],,
1.18 ± 0.33,,,,CCc1c(C2CC2)[nH]c2nc3ccccc3n2c1=O [C-77],,
> 10,20,,,COCCc1c(C)[nH]c2nc3ccccc3n2c1=O [B-35],,
> 100,9,,,Cc1[nH]c2nc3ccccc3n2c(=O)c1CCN=[N+]=[N-] [C-69],,
0.018 ± 0.0044,,0.00126 ± 0.00029,,CCc1c(C(C)C)[nH]c2nc3cc(F)ccc3n2c1=O [C-74],,
